The source of these data is patent US5004756A, “Anti-cancer activity potentiator” (priority 1988, dated 1991).

Broadly, the IC50 is the concentration at which inhibition is half-maximal.

One data set concerns Lewis lung cancer cells. Nature of the data set: Life prolongation of BDF1 mice with Lewis lung cancer (A-II Part 2). It counts as in vivo, mouse (male BDF1). The method, then:
Male BDF1 mice having a body weight of 20±2 g (6 per group) were used, and as tumor cells, Lewis lung cancer cells were transplanted under the skin of the side abdomen of each of the mice at a rate of 10^5 cells. […] The life prolongation rate of the mice in each group was determined by the treated group/non-treated control group (T/C %).

Data set [1] relates to V79/ADM. As to the kind of experiment: Anti-cancer activity potentiating action, colony formation, V79/ADM resistant cells (A-III). The class given is cell-based, Chinese hamster. The note with it: V79/ADM; for IC50: Cricetulus griseus. The method, then: (§1) The anti-cancer activity potentiating action of the malate of formula (I) was examined using Chinese hamster cells (sensitive cell line V79/S and ADM-resistant cell line V79/ADM), human hepatoma cells (sensitive cell line PLC/S and colchicin-resistant cell line PLC/Col) and mouse leukemia cells (sensitive cell line L5178Y/S) and aclarubicin-resistant cell line L5178Y/ACR).
(§2) Of these tumor cells, the sensitive cells (400 cells) and the resistant cells (600 cells) were each incubated in 10 ml of Eagle's MEM medium containing 10% bovine serum for 24 hours, and then each of the test drugs indicated in Table 6 was added. Thereafter, the incubation was carried out for 9 days. The concentration (IC50 : micrograms/ml) of the test drug required to inhibit 50% of the colony formation (proliferation) of the tumor cells was calculated.
(§3) (A) Chinese hamster V79 cells
(§4) As anti-cancer agents, there were used adriamycin (ADM), aclarubicin (ACR), actinomycin D (ACD), 5-fluorouracil (5-FU), cytarabin (Ara-C), cisplatin (CDDP), methotrexate (MTX), mitomycin C (MMC), nimustine (ACNU), mitoxantrone, etoposide ([…]), vincristine (VCR), bleomycin (BLM) and peplomycin (PEP). For the sensitive cells, the anti-cancer agents were used in combination with 10 micrograms/ml of the malate of formula (I), and for the resistant cells, the anti-cancer agents were used in combination with the malate of formula (I) 3 micrograms/ml, 5 micrograms/ml, and 10 micrograms/ ml.

The subject of data set [2] is PLC/Col. Nature of the data set: Colony formation (proliferation) inhibition, colchicin-resistant human hepatoma cells (A-I Part 1). The class given is cell-based. The note with it: Homo sapiens, 216 h. The method, then: (§5) Sensitive cell line V79/S and ADM-resistant cell line V79/ADM of the Chinese hamster were used, and sensitive cell line PLC/S and cholchicin-resistant cell line PLC/Col, as human hepatoma cells.
(§6) The sensitive cell lines (400 cells) or the resistant cell lines (600 cells) were each incubated for 24 hours in 10 ml of Eagle's MEM medium containing 10% bovine serum. Each of the drugs indicated in Table 1 below was dissolved in ethanol, and 50 microliters of the resulting solution was added to the medium. The incubation was further carried out for 9 days. The concentration of the drug which inhibits 50% of the colony formation (proliferation) of the tumor cells was calculated.
(§7) V79/S and V79/ADM were tested by using all of the drugs described above, but PLC/S and PLC/Col were tested by using only the malate of formula (I), adriamycin and peplomycin.
(§8) The concentrations (micrograms/ml) required to inhibit 50% of the proliferation of the tumor cells, expressed by IC50, are shown in Table 1.

The next data set concerns L5178Y/S. Nature of the data set: Anti-cancer activity potentiating action, colony formation, mouse leukemia sensitive cells (table head prints PLC/S). The class given is cell-based. The note with it: head prints PLC/S (parent cells); for IC50: Mus musculus, L5178Y. On the procedure:
as §1, §2
(§9) Adriamycin (ADM) and aclarubicin (ACR) as anti-cancer agents were used in combination with 20 micrograms/ml of the malate of formula (I).

Data set [3] deals with PLC/Col. Nature of the data set: Anti-cancer activity potentiating action, colony formation, PLC/Col resistant cells (A-III). It counts as cell-based, human. The settings on record: for IC50: Homo sapiens. The method, then:
as §1, §2
(§10) As anti-cancer agents, adriamycin (ADM) and peplomycin (PEP) were used in combination with the malate of formula (I) (5 micrograms/ml).

Data set [4] has as its system Human stomach cancer cell line H-81. As to the kind of experiment: Anti-cancer activity potentiating action in nude mice with human stomach cancer H-81 (A-V). It counts as in vivo, human tumor in ICR nude mice. An excerpt: ICR nude mice (4-5 weeks old; 7 per group) were used. Human stomach cancer cell line H-81 was used as tumor cells. Tissue pieces, 2 mm in square, were taken, and transplanted subcutaneously to the right back portion of the nude mice. […] The sequence of the drug administration was as follows: […] The administration was further repeated every five days from the day on which the administration was first carried out. The total number of administrations of each drug was four. […] The measurement was made on the days on which the drugs were administered, and four weeks after the start of drug administration.

Data set [5] relates to V79/S. Nature of the data set: Anti-cancer activity potentiating action, colony formation, V79/S parent cells (A-III). It counts as cell-based, Chinese hamster. The settings on record: V79/S; for IC50: Cricetulus griseus. The method, then:
as §1, §2, §3, §4

Data set [6] deals with clinically isolated human cancer cells (lung adenocarcinoma, lung squamous cell carcinoma, osteosarcoma, ovarian carcinoma). Nature of the data set: Anti-tumor activity on clinically isolated human cancer cells, morphological changes (A-I Part 2). The class given is cell-based. The settings on record: 0.3 μg/ml.
The subject of the next data set is L5178Y/ACR. As to the kind of experiment: Anti-cancer activity potentiating action, colony formation, aclarubicin-resistant mouse leukemia cells (table head prints PLC/ACR). It counts as cell-based. The note with it: for IC50: Mus musculus, L5178Y. On the procedure:
as §1, §2, §9

Data set [7] has as its system human tumor cells (muscle fibrosarcoma HT-1080). Nature of the data set: Anti-cancer activity potentiating action in nude mice with HT-1080 (A-VI). It counts as in vivo, human tumor in ICR nude mice. The settings on record: ADM 4 mg/kg i.v., days 5, 10, 15, 20; day 36. On the procedure: ICR nude mice, 6 per group, were used, and the experiment was conducted substantially in accordance with the procedure described in A-V.
As tumor cells, human tumor cells (muscle fibrosarcoma HT-1080) were used, and 5 days after the transplantation, drug administration was started.
The administration was further performed every 5 days from the day of starting the administration, and the total number of administrations was therefore 4.
Mitomycin C (MMC) was tested by the same way as above.
Thirty-six days after the transplantation of the tumor, a tumor mass was extracted and its weight was measured. From the difference of the weight of the tumor from the non-treated control group, the tumor growth inhibition ratio (%) was calculated.

In data set [8] the test system is V79/ADM. Nature of the data set: Colony formation (proliferation) inhibition, ADM-resistant Chinese hamster cells (A-I Part 1). The class given is cell-based. The settings on record: Cricetulus griseus, 216 h. On the procedure:
as §5, §6, §7, §8

The subject of data set [9] is V79/S. Nature of the data set: Colony formation (proliferation) inhibition, sensitive Chinese hamster cells (A-I Part 1). The class given is cell-based. The settings on record: Cricetulus griseus, 216 h. The method, then: as §5, §6, §7, §8
Data set [10] deals with PLC/S. As to the kind of experiment: Colony formation (proliferation) inhibition, sensitive human hepatoma cells (A-I Part 1). It counts as cell-based. The note with it: Homo sapiens, 216 h. The method, then:
as §5, §6, §7, §8

Data set [11] relates to PLC/S. As to the kind of experiment: Anti-cancer activity potentiating action, colony formation, PLC/S parent cells (A-III). The note with it: for IC50: Homo sapiens. The class given is cell-based, human. The method, then: as §1, §2, §10
The nature of data set [12]: Particle charge / formation of lipid emulsion. The class given is physicochemical. An excerpt:
To secure fine particles of 1 micron or below in size which can actually be administered as a lipid emulsion, the particles should have a charge within the range of +20 mV to +50 mV.

A further data set deals with B16 melanoma cells. Nature of the data set: Life prolongation of BDF1 mice with B16 melanoma (A-II Part 1). It counts as in vivo, mouse (male BDF1). The note with it: 0.45 mg/kg i.p., three times every 4 days. The method, then: Three to eight male BDF1 mice having a body weight of 20±3 g were used, and B16 melanoma cells were selected as tumor cells. The melanoma cells were homogenized, and the homogenate was transplanted subcutaneously to the mice in an amount of 0.5 ml/mouse. After 7 days, the malate of formula (I) in accordance with this invention and an anti-cancer agent, neocartinostatin (NCS), were intraperitoneally administered either singly or in combination three times every 4 days in a dose of 5 mg/kg and 0.45 mg/kg for each time. The life prolonging rate of the mice was determined by the treated group/non-treated control group (T/C %).

Where [13] appears, read: alone, Table 6, read-out: IC50, anti-cancer agent alone.
Setting [14] is: with compound (I) 10 μg/ml, read-out: IC50 in combination with compound (I).
[15] abbreviates: alone, Table 7 lower part, read-out: IC50, anti-cancer agent alone.
The mark [16] stands for this setting: with compound (I) 20 μg/ml, read-out: IC50 in combination with compound (I).
Setting [17] is: read-out: IC50, anti-cancer agent alone.
Setting [18] is: read-out: IC50 in combination with compound (I).

Values after ≈ are worked out from the molar mass of the structure shown. Like-named read-outs stand apart in the source and are kept apart here.

With `COc1cccc2c1C(=O)c1c(O)c3c(c(O)c1C2=O)C[C@@](O)(C(=O)CO)C[C@@H]3O[C@H]1C[C@H](N)[C@H](O)[C@H](C)O1` [ADM, adriamycin], the entries for the “T/C (life prolongation rate)” value in the data set with Lewis lung cancer cells (1.25 mg/kg i.v.), in the data set with Lewis lung cancer cells (2.5 mg/kg i.v. (lipid emulsion calculated as malate)) and with Lewis lung cancer cells (5.0 mg/kg i.v. (lipid emulsion calculated as malate)) were 218%, 173% and 241%, respectively. Further, the IC50 came out at 8.8 µg/mL with V79/ADM [1] (setting [13]); 0.25 µg/mL in the data set on V79/ADM [1] (setting [14]); 0.08 µg/mL (≈ 0.147 µM) in the data set with PLC/Col [2]; 0.048 µg/mL in the data set with L5178Y/S (setting [15]); 0.016 µg/mL in the data set with L5178Y/S (setting [16]); 0.08 µg/mL with PLC/Col [3] (setting [17]). Further, the IC50 in the data set with PLC/Col [3] (setting [18]) is 0.027 µg/mL; in the data set on V79/S [5] (setting [13]), 0.057 µg/mL; in the data set with V79/S [5] (setting [14]), 0.008 µg/mL; in the data set on L5178Y/ACR (setting [15]), 0.06 µg/mL; with L5178Y/ACR (setting [16]), 0.18 µg/mL; with V79/ADM [8] it was 8.8 µg/mL (≈ 16.2 µM). In addition, the IC50 in the data set on V79/S [9] came out at 0.057 µg/mL (≈ 0.105 µM); in the data set with PLC/S [10], 0.005 µg/mL (≈ 0.0092 µM); with PLC/S [11] (setting [17]) it was 0.005 µg/mL; in the data set on PLC/S [11] (setting [18]), 0.0053 µg/mL. The Potentiation activity was determined as 35.2 times in the data set on V79/ADM [1] (with compound (I) 10 μg/ml); 3.0 times with L5178Y/S (with compound (I) 20 μg/ml); 3.0 times with PLC/Col [3] (PLC/Col, with compound (I) 5 μg/ml); 7.1 times in the data set with V79/S [5] (with compound (I) 10 μg/ml); 3.7 times with L5178Y/ACR (with compound (I) 20 μg/ml); 1.0 times in the data set with PLC/S [11] (PLC/S, with compound (I) 5 μg/ml). Further, the “Tumor growth inhibition rate” value in [4] (2 mg/kg i.v., 4 weeks later, **p < 0.1 vs control) is given as 45.2%; in data set [4] (2 mg/kg i.v., 5 days later) it was 16.5%; in data set [4] (2 mg/kg i.v., 10 days later), 45.7%; in [4] (2 mg/kg i.v., 15 days later), 49.5%; in data set [4] (ADM 5 mg/kg i.v. singly, 4 weeks later, *p < 0.5 vs control) it was 59.7%. Moreover, the “Efficacy ratio (rated significant by Fisher's test)” value in data set [6] was 3/8. Further, the “Tumor growth inhibition ratio” value in [7] is 96.1%. The Tumor weight in data set [7] is reported as 0.14 ± 0.32.
As for `COc1ccc(CNCCN(CC=C(C)CCC=C(C)CCC=C(C)CCC=C(C)CCC=C(C)CCC=C(C)CCC=C(C)CCC=C(C)CCC=C(C)C)Cc2ccc(OC)c(OC)c2)cc1OC` [compound (II), N-solanesyl-N,N'-bis(3,4-dimethoxybenzyl)ethylenediamine], the “Formation of a lipid emulsion” value in data set [12] is given as “cannot be formed into a lipid emulsion”. Also, in data set [12] (lipid emulsion particles), the “Particle charge within +20 mV to +50 mV / aggregation” value is given as “particle aggregation occurs”.

B1: neocartinostatin (protein, UniProt P0A3R9 35-147, looked up)
Neocarzinostatin: AAPTATVTPSSGLSDGTVVKVAGAGLQAGTAYDVGQCAWVDTGVLACNPADFSSVTADANGSASTSLTVRRSFEGFLFDGTRWGTVDCTTAACQVGLSDAAGNGPEGVAISFN
Consider B1, for which the “T/C (life prolonging rate at M.S.T.)” value in the data set with B16 melanoma cells came to 135%.
